Assay results as given in BindingDB's records for doi:10.1111/j.1476-5381.1994.tb13148.x (Smithkline Beecham Pharmaceuticals, 1994).

Columns and labels:
[1] = biological target: D(3) dopamine receptor (Homo sapiens, UniProt P35462)
[2] = biological target: 5-hydroxytryptamine receptor 2A (Homo sapiens, UniProt P28223)
[3] = biological target: 5-hydroxytryptamine receptor 1E (Homo sapiens, UniProt P28566)
[4] = biological target: Beta-2 adrenergic receptor (Homo sapiens, UniProt P07550)
[5] = biological target: T1, Adenosine receptor A1 (Rattus norvegicus, UniProt P25099)
T1 sequence (P25099 whole entry): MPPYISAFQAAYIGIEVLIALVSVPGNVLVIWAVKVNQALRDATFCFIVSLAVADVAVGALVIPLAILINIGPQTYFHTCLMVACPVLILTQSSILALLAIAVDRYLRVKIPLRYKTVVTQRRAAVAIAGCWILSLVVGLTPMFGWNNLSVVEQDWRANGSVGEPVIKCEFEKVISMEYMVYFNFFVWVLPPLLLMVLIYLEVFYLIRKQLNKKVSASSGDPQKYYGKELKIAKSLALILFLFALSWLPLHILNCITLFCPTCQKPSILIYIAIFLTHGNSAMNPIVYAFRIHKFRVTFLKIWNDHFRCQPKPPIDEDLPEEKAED

[6] = biological target: D(2) dopamine receptor (Homo sapiens, UniProt P14416)
Sequence of D(2) dopamine receptor (P14416 whole entry): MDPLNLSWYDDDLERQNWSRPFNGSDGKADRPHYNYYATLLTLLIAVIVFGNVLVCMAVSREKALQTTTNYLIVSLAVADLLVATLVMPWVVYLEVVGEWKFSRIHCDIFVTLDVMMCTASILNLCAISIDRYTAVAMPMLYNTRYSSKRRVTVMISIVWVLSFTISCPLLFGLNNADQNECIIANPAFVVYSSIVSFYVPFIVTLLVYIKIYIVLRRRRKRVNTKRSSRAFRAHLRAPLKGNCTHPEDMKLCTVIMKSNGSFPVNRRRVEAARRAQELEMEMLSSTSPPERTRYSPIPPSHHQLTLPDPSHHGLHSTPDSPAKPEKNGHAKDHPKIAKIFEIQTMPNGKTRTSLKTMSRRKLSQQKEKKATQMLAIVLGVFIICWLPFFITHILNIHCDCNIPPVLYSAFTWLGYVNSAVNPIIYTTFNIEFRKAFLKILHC

[7] = biological target: D(1A) dopamine receptor (Homo sapiens, UniProt P21728)
Sequence of D(1A) dopamine receptor (P21728 whole entry): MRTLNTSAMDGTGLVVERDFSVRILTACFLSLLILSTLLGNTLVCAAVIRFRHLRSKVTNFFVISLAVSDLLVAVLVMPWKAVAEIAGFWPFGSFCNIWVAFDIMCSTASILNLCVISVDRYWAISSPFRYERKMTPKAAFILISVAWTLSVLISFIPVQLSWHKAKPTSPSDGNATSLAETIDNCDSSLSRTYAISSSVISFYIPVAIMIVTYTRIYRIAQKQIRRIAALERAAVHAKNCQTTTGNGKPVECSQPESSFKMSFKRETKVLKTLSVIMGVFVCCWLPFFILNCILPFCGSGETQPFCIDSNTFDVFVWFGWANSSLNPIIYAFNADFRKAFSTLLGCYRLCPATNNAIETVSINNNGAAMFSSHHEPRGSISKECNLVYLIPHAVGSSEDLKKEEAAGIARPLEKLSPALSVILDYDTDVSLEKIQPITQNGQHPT

[8] = biological target: Gamma-aminobutyric acid receptor subunit alpha-1 (Rattus norvegicus, UniProt P62813)
Sequence of Gamma-aminobutyric acid receptor subunit alpha-1 (Rattus norvegicus, UniProt P62813) (P62813 whole entry): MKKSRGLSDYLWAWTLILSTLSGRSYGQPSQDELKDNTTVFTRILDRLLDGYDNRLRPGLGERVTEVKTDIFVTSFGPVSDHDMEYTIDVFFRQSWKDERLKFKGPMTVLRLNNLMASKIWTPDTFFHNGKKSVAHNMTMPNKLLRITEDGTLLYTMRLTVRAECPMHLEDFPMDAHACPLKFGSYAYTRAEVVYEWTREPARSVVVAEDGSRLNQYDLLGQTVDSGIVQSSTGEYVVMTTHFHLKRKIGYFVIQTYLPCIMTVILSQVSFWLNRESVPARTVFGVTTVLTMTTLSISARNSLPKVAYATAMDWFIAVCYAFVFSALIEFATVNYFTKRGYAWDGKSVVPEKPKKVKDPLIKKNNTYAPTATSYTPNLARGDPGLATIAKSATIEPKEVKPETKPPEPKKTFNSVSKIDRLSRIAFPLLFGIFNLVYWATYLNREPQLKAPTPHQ

[9] = biological target: 5-hydroxytryptamine receptor 1D (Cavia porcellus, UniProt Q60484)
Sequence of 5-hydroxytryptamine receptor 1D (Q60484 whole entry): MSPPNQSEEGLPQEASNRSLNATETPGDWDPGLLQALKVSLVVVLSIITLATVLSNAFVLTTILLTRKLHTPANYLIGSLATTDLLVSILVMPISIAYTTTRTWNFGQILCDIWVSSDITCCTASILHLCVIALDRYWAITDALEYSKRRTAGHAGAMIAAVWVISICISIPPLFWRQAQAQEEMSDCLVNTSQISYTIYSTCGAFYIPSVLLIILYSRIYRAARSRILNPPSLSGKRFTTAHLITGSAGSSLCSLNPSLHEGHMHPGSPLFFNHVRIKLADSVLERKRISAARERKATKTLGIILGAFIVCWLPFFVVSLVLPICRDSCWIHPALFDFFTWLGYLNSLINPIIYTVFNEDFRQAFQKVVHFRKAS

[10] = biological target: T2, 5-hydroxytryptamine receptor 2C (Sus scrofa, UniProt G7ZKZ7)
T2 sequence (G7ZKZ7 whole entry): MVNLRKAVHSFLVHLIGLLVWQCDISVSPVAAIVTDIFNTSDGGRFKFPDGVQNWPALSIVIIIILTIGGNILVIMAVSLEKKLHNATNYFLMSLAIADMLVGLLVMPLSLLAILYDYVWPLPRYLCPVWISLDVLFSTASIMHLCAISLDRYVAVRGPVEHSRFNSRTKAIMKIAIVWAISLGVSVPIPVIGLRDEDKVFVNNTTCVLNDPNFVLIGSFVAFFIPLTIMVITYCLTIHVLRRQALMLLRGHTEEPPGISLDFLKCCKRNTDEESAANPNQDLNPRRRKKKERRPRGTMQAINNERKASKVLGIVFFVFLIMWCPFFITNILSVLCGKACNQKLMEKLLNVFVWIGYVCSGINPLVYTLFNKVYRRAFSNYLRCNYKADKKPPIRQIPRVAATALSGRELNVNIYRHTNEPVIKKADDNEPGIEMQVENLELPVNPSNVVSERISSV

[11] = biological target: T3, 5-hydroxytryptamine receptor 3A (Rattus norvegicus, UniProt P35563)
T3 sequence (P35563 whole entry): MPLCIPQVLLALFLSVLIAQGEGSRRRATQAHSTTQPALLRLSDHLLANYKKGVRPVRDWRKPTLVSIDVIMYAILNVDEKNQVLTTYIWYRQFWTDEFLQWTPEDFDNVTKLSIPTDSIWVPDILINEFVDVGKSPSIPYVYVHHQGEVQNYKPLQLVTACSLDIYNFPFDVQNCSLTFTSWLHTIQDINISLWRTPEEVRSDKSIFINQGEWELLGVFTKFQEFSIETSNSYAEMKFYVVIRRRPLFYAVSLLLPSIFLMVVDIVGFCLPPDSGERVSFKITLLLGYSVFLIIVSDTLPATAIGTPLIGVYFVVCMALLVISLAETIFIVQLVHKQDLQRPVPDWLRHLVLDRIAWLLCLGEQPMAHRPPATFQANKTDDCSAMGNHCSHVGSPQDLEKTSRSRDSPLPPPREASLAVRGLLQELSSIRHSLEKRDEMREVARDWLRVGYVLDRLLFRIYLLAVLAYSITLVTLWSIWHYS

[12] = biological target: T4, Solute carrier family 22 member 1 (Rattus norvegicus, UniProt Q63089)
T4 sequence (Q63089 whole entry): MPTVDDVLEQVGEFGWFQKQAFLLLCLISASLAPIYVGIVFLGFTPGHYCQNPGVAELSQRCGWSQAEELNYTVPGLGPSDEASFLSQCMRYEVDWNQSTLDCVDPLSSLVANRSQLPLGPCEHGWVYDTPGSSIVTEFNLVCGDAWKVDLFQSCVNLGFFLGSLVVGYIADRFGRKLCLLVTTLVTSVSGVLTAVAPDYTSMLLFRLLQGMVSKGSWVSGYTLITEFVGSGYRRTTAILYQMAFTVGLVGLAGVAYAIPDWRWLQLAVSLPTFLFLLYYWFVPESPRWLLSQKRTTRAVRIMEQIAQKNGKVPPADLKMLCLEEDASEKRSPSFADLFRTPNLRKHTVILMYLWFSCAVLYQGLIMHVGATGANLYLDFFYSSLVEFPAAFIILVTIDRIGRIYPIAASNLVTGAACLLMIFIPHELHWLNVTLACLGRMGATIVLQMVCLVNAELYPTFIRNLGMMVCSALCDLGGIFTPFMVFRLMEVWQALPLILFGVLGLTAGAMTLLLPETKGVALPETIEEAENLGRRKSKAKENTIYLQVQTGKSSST

[13] = biological target: T5, Adrenergic alpha2 receptor (Mesocricetus auratus, UniProt Q60533)
T5 sequence (Q60533 whole entry): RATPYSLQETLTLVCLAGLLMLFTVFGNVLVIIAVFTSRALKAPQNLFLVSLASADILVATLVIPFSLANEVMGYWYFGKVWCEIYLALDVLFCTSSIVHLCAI

[14] = biological target: Beta-1 adrenergic receptor (Homo sapiens, UniProt P08588)
Sequence of Beta-1 adrenergic receptor (P08588 whole entry): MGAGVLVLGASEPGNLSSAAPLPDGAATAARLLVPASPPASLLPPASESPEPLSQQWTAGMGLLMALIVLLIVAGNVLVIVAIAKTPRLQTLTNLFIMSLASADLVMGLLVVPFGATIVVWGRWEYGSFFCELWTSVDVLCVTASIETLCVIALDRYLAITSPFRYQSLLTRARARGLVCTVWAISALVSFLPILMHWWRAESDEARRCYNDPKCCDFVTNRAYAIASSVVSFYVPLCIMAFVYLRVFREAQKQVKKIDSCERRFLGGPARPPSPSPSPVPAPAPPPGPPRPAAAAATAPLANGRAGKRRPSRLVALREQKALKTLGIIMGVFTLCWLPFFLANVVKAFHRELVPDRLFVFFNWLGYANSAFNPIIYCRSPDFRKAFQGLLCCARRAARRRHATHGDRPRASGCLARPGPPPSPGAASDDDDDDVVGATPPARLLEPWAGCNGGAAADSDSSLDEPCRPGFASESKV

[15] = biological target: T6, Gamma-aminobutyric acid receptor subunit alpha-1 (Homo sapiens, UniProt P14867)
T6 sequence (P14867 whole entry): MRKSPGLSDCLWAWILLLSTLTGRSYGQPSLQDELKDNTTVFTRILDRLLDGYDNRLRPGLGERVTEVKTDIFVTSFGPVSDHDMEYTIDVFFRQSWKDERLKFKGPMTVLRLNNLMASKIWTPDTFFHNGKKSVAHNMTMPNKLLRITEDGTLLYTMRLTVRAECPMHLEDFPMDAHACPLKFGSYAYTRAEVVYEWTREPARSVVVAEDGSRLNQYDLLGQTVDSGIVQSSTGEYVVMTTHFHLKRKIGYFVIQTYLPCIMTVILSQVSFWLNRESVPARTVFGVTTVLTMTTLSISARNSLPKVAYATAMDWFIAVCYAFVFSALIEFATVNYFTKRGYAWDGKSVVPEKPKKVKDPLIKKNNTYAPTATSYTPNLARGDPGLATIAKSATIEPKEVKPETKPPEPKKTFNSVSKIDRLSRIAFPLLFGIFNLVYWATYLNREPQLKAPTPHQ

Sequence of 5-hydroxytryptamine receptor 2A (P28223 whole entry): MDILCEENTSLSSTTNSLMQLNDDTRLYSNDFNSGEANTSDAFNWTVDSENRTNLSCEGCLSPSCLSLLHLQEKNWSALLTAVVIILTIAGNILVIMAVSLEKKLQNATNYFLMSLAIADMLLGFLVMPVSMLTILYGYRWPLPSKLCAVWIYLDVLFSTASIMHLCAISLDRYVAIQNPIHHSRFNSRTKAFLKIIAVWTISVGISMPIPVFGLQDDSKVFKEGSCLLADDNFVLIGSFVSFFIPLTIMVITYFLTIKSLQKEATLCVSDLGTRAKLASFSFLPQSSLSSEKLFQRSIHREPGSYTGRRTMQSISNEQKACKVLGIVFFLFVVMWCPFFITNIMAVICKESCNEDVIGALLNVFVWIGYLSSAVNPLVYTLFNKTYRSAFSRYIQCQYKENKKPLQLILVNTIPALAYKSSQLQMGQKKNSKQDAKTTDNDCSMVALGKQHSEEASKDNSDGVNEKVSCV
Sequence of 5-hydroxytryptamine receptor 1E (P28566 whole entry): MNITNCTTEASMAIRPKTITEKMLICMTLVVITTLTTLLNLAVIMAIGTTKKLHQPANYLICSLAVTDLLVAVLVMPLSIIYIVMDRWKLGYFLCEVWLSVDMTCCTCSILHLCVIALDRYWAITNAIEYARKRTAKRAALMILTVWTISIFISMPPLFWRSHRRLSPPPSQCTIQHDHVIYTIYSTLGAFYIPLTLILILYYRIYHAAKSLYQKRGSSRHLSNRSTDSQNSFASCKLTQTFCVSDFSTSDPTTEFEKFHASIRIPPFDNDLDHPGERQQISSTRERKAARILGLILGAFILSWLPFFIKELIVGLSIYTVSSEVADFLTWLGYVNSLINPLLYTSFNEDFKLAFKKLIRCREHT
Sequence of Beta-2 adrenergic receptor (P07550 whole entry): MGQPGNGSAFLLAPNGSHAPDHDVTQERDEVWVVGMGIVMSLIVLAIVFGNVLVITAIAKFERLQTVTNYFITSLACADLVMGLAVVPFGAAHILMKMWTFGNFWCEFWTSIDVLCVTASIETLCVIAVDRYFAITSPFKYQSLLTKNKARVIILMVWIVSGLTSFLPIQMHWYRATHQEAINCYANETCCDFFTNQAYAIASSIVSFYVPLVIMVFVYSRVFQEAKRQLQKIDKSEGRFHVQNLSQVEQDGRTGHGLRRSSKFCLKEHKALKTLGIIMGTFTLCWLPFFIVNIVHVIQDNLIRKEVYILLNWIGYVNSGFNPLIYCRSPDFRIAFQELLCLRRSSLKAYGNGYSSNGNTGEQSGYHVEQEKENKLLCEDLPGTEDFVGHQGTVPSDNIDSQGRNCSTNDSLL
Sequence of D(3) dopamine receptor (P35462 as listed by the source): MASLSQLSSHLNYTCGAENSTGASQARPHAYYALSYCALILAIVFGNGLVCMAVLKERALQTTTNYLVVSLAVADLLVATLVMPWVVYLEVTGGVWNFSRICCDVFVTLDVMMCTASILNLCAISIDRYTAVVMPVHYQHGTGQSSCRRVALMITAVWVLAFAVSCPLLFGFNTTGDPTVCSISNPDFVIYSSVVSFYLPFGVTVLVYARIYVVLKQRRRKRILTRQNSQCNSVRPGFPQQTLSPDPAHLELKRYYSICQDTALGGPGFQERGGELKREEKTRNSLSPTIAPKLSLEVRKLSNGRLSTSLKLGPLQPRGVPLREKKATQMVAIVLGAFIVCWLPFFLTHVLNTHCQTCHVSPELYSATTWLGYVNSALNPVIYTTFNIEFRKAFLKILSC

Ki [1]: 1 µM
Ki [2]: 1 µM
Ki [3]: > 10 µM
Ki [4]: 1 µM
Ki [5]: > 10 µM
Ki [6]: > 10 µM
Ki [7]: 1 µM
Ki [8]: > 10 µM
Ki [9]: > 10 µM
Ki [10]: 0.126 µM
Ki [11]: 0.398 µM
Ki [12]: 1 µM
Ki [13]: 1 µM
Ki [14]: 1 µM
Ki [15]: > 10 µM
Compound: CCCCN1CCC(COC(=O)c2cc(Cl)c(N)c3c2OCCO3)CC1 [CAS_121881]
